Tests used:
Settings in all cases: 48 h
NOMO1 [1] = experiment: cell viability relative to DMSO control; higher = less cytotoxic
Summary of the method: (§1)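 Viability is expressed as a percentage of DMSO wells within each plate, and cell-free wells serve as background. Seeding densities in the 1536-well plates (5 μl) were 500 cells/well for NOMO1 or SEM leukemia cells and 1000 cells/well for P12-Ichikawa. Each line was adapted for at least four passages in each medium. Library compounds in DMSO were pin-dosed at 47 μM to 0.79 nM (11 points, threefold), and CellTiter-Glo One luminescence was read after 48 h at 37°C.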

P12-Ichikawa [2] = experiment: as above
Summary of the method: as §1

SEM cells [3] = experiment: as above
Summary of the method: as §1

NOMO1 [4] = experiment: AUC of viability dose-response curve (% viability x log10 dose units); higher = less sensitive
Summary of the method: (§2)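 Over 48 h at 37°C, leukemia cells in 1536-well plates (500 or 1000 cells/well), adapted to each medium, received library compounds in DMSO at 11 threefold doses from 47 μM to 0.79 nM. CellTiter-Glo One luminescence, normalised per plate to DMSO and cell-free wells, was fitted by a four-parameter log-logistic function of log10 dose. The area under the curve was then integrated by trapezoidal rule, after scaling curves above full viability and removing those that failed quality control.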

P12-Ichikawa [5] = experiment: as above
Summary of the method: as §2

SEM cells [6] = experiment: as above
Summary of the method: as §2

NC\1=N\C(=O)N(\C=C1)[C@@H]2O[C@H](CO)[C@@H](O)[C@@H]2O
cell viability [%]
Settings	NOMO1 [1]	P12-Ichikawa [2]	SEM cells [3]
HPLM + 10% dialyzed FBS, 0.000781 µM	76.3	26.1	23.7
HPLM + 10% dialyzed FBS, 0.00234 µM	79.8	22.9	26.1
HPLM + 10% dialyzed FBS, 0.00702 µM	47.7	9.22	17.2
HPLM + 10% dialyzed FBS, 0.0211 µM	62.9	8.83	15.7
HPLM + 10% dialyzed FBS, 0.0632 µM	33.9	4.99	13.3
HPLM + 10% dialyzed FBS, 0.19 µM	30.6	6.11	11
HPLM + 10% dialyzed FBS, 0.569 µM	31.5	6.14	10.9
HPLM + 10% dialyzed FBS, 1.71 µM	25.8	4.49	8.22
HPLM + 10% dialyzed FBS, 5.12 µM	20.3	3.27	7.91
HPLM + 10% dialyzed FBS, 15.4 µM	20	2.43	7.2
HPLM + 10% dialyzed FBS, 46.1 µM	6.26	0.778	3.82
RPMI 5 mM glucose + 10% FBS, 0.000781 µM	76	14.9	37.4
RPMI 5 mM glucose + 10% FBS, 0.00234 µM	83.3	15.4	37.7
RPMI 5 mM glucose + 10% FBS, 0.00702 µM	83.1	9.94	23.5
RPMI 5 mM glucose + 10% FBS, 0.0211 µM	74.8	5.41	21.1
RPMI 5 mM glucose + 10% FBS, 0.0632 µM	54.1	3.93	11.4
RPMI 5 mM glucose + 10% FBS, 0.19 µM	24.4	3.94	12.1
RPMI 5 mM glucose + 10% FBS, 0.569 µM	25.1	3.63	10.4
RPMI 5 mM glucose + 10% FBS, 1.71 µM	21.3	2.08	8.65
RPMI 5 mM glucose + 10% FBS, 5.12 µM	14.6	1.73	7.25
RPMI 5 mM glucose + 10% FBS, 15.4 µM	8.18	1.04	6.17
RPMI 5 mM glucose + 10% FBS, 46.1 µM	3.59	0.402	1.99
RPMI 5 mM glucose + 10% dialyzed FBS, 0.000781 µM	66.8	20	16.3
RPMI 5 mM glucose + 10% dialyzed FBS, 0.00234 µM	68.6	16.6	15.2
RPMI 5 mM glucose + 10% dialyzed FBS, 0.00702 µM	53.4	11.1	14.2
RPMI 5 mM glucose + 10% dialyzed FBS, 0.0211 µM	49.9	10.5	8.59
RPMI 5 mM glucose + 10% dialyzed FBS, 0.0632 µM	29.8	7.45	7.4
RPMI 5 mM glucose + 10% dialyzed FBS, 0.19 µM	18.3	6.15	7.91
RPMI 5 mM glucose + 10% dialyzed FBS, 0.569 µM	25.8	7.46	6.93
RPMI 5 mM glucose + 10% dialyzed FBS, 1.71 µM	14.7	5.67	4.74
RPMI 5 mM glucose + 10% dialyzed FBS, 5.12 µM	16.6	3.34	3.6
RPMI 5 mM glucose + 10% dialyzed FBS, 15.4 µM	12.6	3.72	3.65
RPMI 5 mM glucose + 10% dialyzed FBS, 46.1 µM	7.75	1.87	1.52

AUC of viability dose-response curve
Settings	HPLM + 10% dialyzed FBS	RPMI 5 mM glucose + 10% FBS	RPMI 5 mM glucose + 10% dialyzed FBS
NOMO1 [4]	186	201	154
P12-Ichikawa [5]	38	25.6	39.2

Cc1coc2c1C(=O)C(=O)c1c-2ccc2c(C)cccc12
cell viability [%]
Settings	NOMO1 [1]	P12-Ichikawa [2]	SEM cells [3]
RPMI 5 mM glucose + 10% FBS, 0.000781 µM	126	120	91.4
RPMI 5 mM glucose + 10% FBS, 0.00234 µM	113	123	79.7
RPMI 5 mM glucose + 10% FBS, 0.00702 µM	125	107	107
RPMI 5 mM glucose + 10% FBS, 0.0211 µM	110	112	12.8
RPMI 5 mM glucose + 10% FBS, 0.0632 µM	112	128	91.3
RPMI 5 mM glucose + 10% FBS, 0.19 µM	128	120	80.1
RPMI 5 mM glucose + 10% FBS, 0.569 µM	118	114	90.3
RPMI 5 mM glucose + 10% FBS, 1.71 µM	114	123	78
RPMI 5 mM glucose + 10% FBS, 5.12 µM	89.4	111	72.8
RPMI 5 mM glucose + 10% FBS, 15.4 µM	103	121	54
RPMI 5 mM glucose + 10% FBS, 46.1 µM	91.2	115	48.6
RPMI 5 mM glucose + 10% dialyzed FBS, 0.000781 µM	116	125	112
RPMI 5 mM glucose + 10% dialyzed FBS, 0.00234 µM	111	116	117
RPMI 5 mM glucose + 10% dialyzed FBS, 0.00702 µM	111	124	135
RPMI 5 mM glucose + 10% dialyzed FBS, 0.0211 µM	113	117	19.3
RPMI 5 mM glucose + 10% dialyzed FBS, 0.0632 µM	117	116	112
RPMI 5 mM glucose + 10% dialyzed FBS, 0.19 µM	108	112	115
RPMI 5 mM glucose + 10% dialyzed FBS, 0.569 µM	106	117	98
RPMI 5 mM glucose + 10% dialyzed FBS, 1.71 µM	130	109	102
RPMI 5 mM glucose + 10% dialyzed FBS, 5.12 µM	97.7	109	106
RPMI 5 mM glucose + 10% dialyzed FBS, 15.4 µM	105	103	86.4
RPMI 5 mM glucose + 10% dialyzed FBS, 46.1 µM	106	108	75.3

AUC of viability dose-response curve
Settings	HPLM + 10% dialyzed FBS	RPMI 5 mM glucose + 10% FBS	RPMI 5 mM glucose + 10% dialyzed FBS
NOMO1 [4]	443	451	460
P12-Ichikawa [5]	454	476	446

COC(=O)Nc1nc2cc(C(=O)c3ccccc3)ccc2[nH]1
cell viability [%], SEM cells [3]
Settings	HPLM + 10% dialyzed FBS	RPMI 5 mM glucose + 10% FBS
0.000781 µM	115	120
0.00234 µM	124	125
0.00702 µM	130	125
0.0211 µM	126	122
0.0632 µM	100	96.4
0.19 µM	24.4	18
0.569 µM	69.6	59.3
1.71 µM	128	86.8
5.12 µM	26.6	22.6
15.4 µM	24.1	23.4
46.1 µM	24.1	19.2

AUC of viability dose-response curve
Settings	HPLM + 10% dialyzed FBS	RPMI 5 mM glucose + 10% FBS	RPMI 5 mM glucose + 10% dialyzed FBS
NOMO1 [4]	401	389	397
SEM cells [6]	303	286	291

Reference: the supplement of paper PMC11451515
